Experimental data published in PubChem BioAssay (NCI).
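At the GI50, growth is halved. TGI denotes the concentration required for complete inhibition of growth.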

Tests used:
Test in all cases: NCI-60 cell line screen, 384-well format; in the data active = GI50 below about 0.43 µM; inactive = the rest
786-0 renal = tested on: 786-0 renal
A498 renal = tested on: A498 renal
A549 NSCLC = tested on: A549 NSCLC
ACHN renal = tested on: ACHN renal
BT-549 breast = tested on: BT-549 breast
CAKI-1 renal = tested on: CAKI-1 renal
CCRF-CEM leukemia = tested on: CCRF-CEM leukemia
COLO 205 colon = tested on: COLO 205 colon
DU-145 prostate = tested on: DU-145 prostate
EKVX NSCLC = tested on: EKVX NSCLC
HCC-2998 colon = tested on: HCC-2998 colon
HCT-116 colon = tested on: HCT-116 colon
HCT-15 colon = tested on: HCT-15 colon
HL-60(TB) leukemia = tested on: HL-60(TB) leukemia
HOP-62 NSCLC = tested on: HOP-62 NSCLC
HOP-92 NSCLC = tested on: HOP-92 NSCLC
HS 578T breast = tested on: HS 578T breast
HT29 colon = tested on: HT29 colon
IGROV1 ovarian = tested on: IGROV1 ovarian
K-562 leukemia = tested on: K-562 leukemia
KM12 colon = tested on: KM12 colon
LOX IMVI melanoma = tested on: LOX IMVI melanoma
M14 melanoma = tested on: M14 melanoma
MALME-3M melanoma = tested on: MALME-3M melanoma
MCF7 breast = tested on: MCF7 breast
MDA-MB-231 breast = tested on: MDA-MB-231 breast
MDA-MB-435 melanoma = tested on: MDA-MB-435 melanoma
MDA-MB-468 breast = tested on: MDA-MB-468 breast
MOLT-4 leukemia = tested on: MOLT-4 leukemia
NCI-H226 lung = tested on: NCI-H226 lung
NCI-H23 lung = tested on: NCI-H23 lung
NCI-H322M lung = tested on: NCI-H322M lung
NCI-H460 NSCLC = tested on: NCI-H460 NSCLC
NCI-H522 lung = tested on: NCI-H522 lung
NCI/ADR-RES ovarian = tested on: NCI/ADR-RES ovarian
OVCAR-3 ovarian = tested on: OVCAR-3 ovarian
OVCAR-4 ovarian = tested on: OVCAR-4 ovarian
OVCAR-5 ovarian = tested on: OVCAR-5 ovarian
OVCAR-8 ovarian = tested on: OVCAR-8 ovarian
PC-3 prostate = tested on: PC-3 prostate
RPMI-8226 leukemia = tested on: RPMI-8226 leukemia
RXF 393 renal = tested on: RXF 393 renal
SF-268 CNS = tested on: SF-268 CNS
SF-295 CNS = tested on: SF-295 CNS
SF-539 CNS = tested on: SF-539 CNS
SK-MEL-28 melanoma = tested on: SK-MEL-28 melanoma
SK-MEL-5 melanoma = tested on: SK-MEL-5 melanoma
SK-OV-3 ovarian = tested on: SK-OV-3 ovarian
SN12C renal = tested on: SN12C renal
SNB-19 CNS = tested on: SNB-19 CNS
SNB-75 CNS = tested on: SNB-75 CNS
SW-620 colon = tested on: SW-620 colon
T-47D breast = tested on: T-47D breast
TK-10 renal = tested on: TK-10 renal
U251 glioblastoma = tested on: U251 glioblastoma
UACC-257 melanoma = tested on: UACC-257 melanoma
UACC-62 melanoma = tested on: UACC-62 melanoma
UO-31 renal = tested on: UO-31 renal

C[C@H](c1ccc(F)cc1CCCC(=O)O)N(c1cc(F)ccc1F)S(=O)(=O)c1ccc(Cl)cc1
70.5 µM: TGI (M14 melanoma)
41.6 µM: TGI (NCI-H23 lung)
46.2 µM: TGI (A549 NSCLC)
66.2 µM: TGI (SF-539 CNS)
45.6 µM: TGI (LOX IMVI melanoma)
34.2 µM: TGI (SF-268 CNS)
44.6 µM: TGI (HOP-92 NSCLC)
26.5 µM: TGI (CCRF-CEM leukemia)
33 µM: TGI (UO-31 renal)
> 100 µM: TGI (786-0 renal) | TGI (ACHN renal) | TGI (CAKI-1 renal) | TGI (COLO 205 colon) | TGI (DU-145 prostate) | TGI (HT29 colon) | TGI (IGROV1 ovarian) | TGI (K-562 leukemia) | TGI (KM12 colon) | TGI (MALME-3M melanoma) | TGI (MDA-MB-231 breast) | TGI (NCI-H322M lung) | TGI (NCI/ADR-RES ovarian) | TGI (OVCAR-4 ovarian) | TGI (OVCAR-5 ovarian) | TGI (OVCAR-8 ovarian) | TGI (RXF 393 renal) | TGI (SK-MEL-28 melanoma) | TGI (SK-OV-3 ovarian) | TGI (SN12C renal) | TGI (SNB-19 CNS) | TGI (SNB-75 CNS) | TGI (SW-620 colon) | TGI (TK-10 renal)
40.4 µM: TGI (UACC-62 melanoma)
30.3 µM: TGI (MDA-MB-468 breast)
inactive: GI50 ([…]-0 renal) 28.9 µM | GI50 (A498 renal) 20.2 µM | GI50 (A549 NSCLC) 16.1 µM | GI50 (ACHN renal) 30.4 µM | GI50 (BT-549 breast) 18.8 µM | GI50 (CAKI-1 renal) 45.9 µM | GI50 (CCRF-CEM leukemia) 12.3 µM | GI50 (COLO 205 colon) 30.1 µM | GI50 (DU-145 prostate) 28.2 µM | GI50 (EKVX NSCLC) 21.6 µM | GI50 (HCC-2998 colon) 1.41 µM | GI50 (HCT-116 colon) 20.2 µM | GI50 (HCT-15 colon) 22.4 µM | GI50 (HL-60(TB) leukemia) 19.1 µM | GI50 (HOP-62 NSCLC) 16.4 µM | GI50 (HOP-92 NSCLC) 13.5 µM | GI50 (HS 578T breast) 12.2 µM | GI50 (HT29 colon) 31.3 µM | GI50 (IGROV1 ovarian) 30.5 µM | GI50 (K-562 leukemia) 27.1 µM | GI50 (KM12 colon) 28.7 µM | GI50 (LOX IMVI melanoma) 19 µM | GI50 (M14 melanoma) 21.4 µM | GI50 (MALME-3M melanoma) 23.7 µM | GI50 (MCF7 breast) 22.7 µM | GI50 (MDA-MB-231 breast) 34 µM | GI50 (MDA-MB-435 melanoma) 24 µM | GI50 (MDA-MB-468 breast) 5.35 µM | GI50 (MOLT-4 leukemia) 11.7 µM | GI50 (NCI-H226 lung) 25.2 µM | GI50 (NCI-H23 lung) 14.9 µM | GI50 (NCI-H322M lung) 25.6 µM | GI50 (NCI-H460 NSCLC) 17.2 µM | GI50 (NCI-H522 lung) 27.9 µM | GI50 (NCI/ADR-RES ovarian) 32 µM | GI50 (OVCAR-3 ovarian) 17.9 µM | GI50 (OVCAR-4 ovarian) 26 µM | GI50 (OVCAR-5 ovarian) 38.5 µM | GI50 (OVCAR-8 ovarian) 32.1 µM | GI50 (PC-3 prostate) 22.7 µM | GI50 (RPMI-8226 leukemia) 19.4 µM | GI50 (RXF 393 renal) 27.9 µM | GI50 (SF-268 CNS) 14 µM | GI50 (SF-295 CNS) 17.7 µM | GI50 (SF-539 CNS) 23.8 µM | GI50 (SK-MEL-28 melanoma) 46 µM | GI50 (SK-MEL-5 melanoma) 13.1 µM | GI50 (SK-OV-3 ovarian) 32.8 µM | GI50 (SN12C renal) 28.8 µM | GI50 (SNB-19 CNS) 35.9 µM | GI50 (SNB-75 CNS) 26.2 µM | GI50 (SW-620 colon) 32.8 µM | GI50 (T-47D breast) 2.26 µM | GI50 (TK-10 renal) 31.1 µM | GI50 (U251 glioblastoma) 19.9 µM | GI50 (UACC-257 melanoma) 13.6 µM | GI50 (UACC-62 melanoma) 16.9 µM | GI50 (UO-31 renal) 15.7 µM
66.8 µM: TGI (PC-3 prostate)
76 µM: TGI (NCI-H226 lung)
53.8 µM: TGI (MDA-MB-435 melanoma)
29.7 µM: TGI (SK-MEL-5 melanoma)
24.2 µM: TGI (MOLT-4 leukemia)
88.9 µM: TGI (MCF7 breast)
42 µM: TGI (BT-549 breast)
33.8 µM: TGI (NCI-H460 NSCLC)
26.6 µM: TGI (T-47D breast)
43.8 µM: TGI (HCT-116 colon)
16.3 µM: TGI (HCC-2998 colon)
68.4 µM: TGI (UACC-257 melanoma)
33.6 µM: TGI (HL-60(TB) leukemia)
36.6 µM: TGI (RPMI-8226 leukemia)
69.3 µM: TGI (A498 renal)
63.1 µM: TGI (EKVX NSCLC)
38 µM: TGI (OVCAR-3 ovarian)
49.4 µM: TGI (U251 glioblastoma)
33.3 µM: TGI (HS 578T breast)
49.7 µM: TGI (SF-295 CNS)
37.1 µM: TGI (HOP-62 NSCLC)
95.5 µM: TGI (HCT-15 colon)
76.3 µM: TGI (NCI-H522 lung)
